Results from doi:10.1101/2021.09.15.460527v1 (bioRxiv, 2021).
Starred links: 1 amine or outer side, 2 acyl side, 3 side chain; linkers in the order of their positions; H or OH if unused. Groups on a side chain read outwards from the residue. No end group written: not given here. *: point of attachment. γGlu = O=C(O)[C@H](CCC(=O)[*:2])N[*:1]; Palmitoyl = CCCCCCCCCCCCCCCC(=O)*

Test system: rats with heroin self-administration experience
Test: Cue-induced heroin seeking
Assay type: in vivo, rat
Details: 0.3 mg/kg sc

## liraglutide (HAEGTFTSDVSSYLEGQAAK([γGlu-Palmitoyl])EFIAWLVRGRG; chains of the INN, looked up)
  Minimum effective pretreatment time: between four and six
